Assay results reported in the supplement of paper PMC5579334.

What was measured:
[1] = tested on: ST8814; assay: relative IC50 (inflection point of fitted dose-response curve, CellTiter-Glo viability, 72 h; top asymptote may be below 50% inhibition); higher = less potent
Summary of the method: (§1)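 Viability was scored by CellTiter-Glo ATP luminescence, scaled from vehicle to positive-control wells, with duplicates averaged where present. The cells, MPNST lines and primary human Schwann cells at 750–1000 per well, sat 72 h at 37 °C, 5% CO2, in 384-well plates preprinted with each compound at five concentrations in 10-fold steps. Four-parameter logistic fits were run on the data. These fits give drug sensitivity score and relative IC50 censored at the top concentration, and percent inhibition is reported at the top concentration.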

[2] = tested on: HSC2; assay: as above
Summary of the method: as §1

[3] = tested on: YST-1; assay: as above
Summary of the method: as §1

[4] = tested on: HS-PSS; assay: as above
Summary of the method: as §1

[5] = tested on: HS-Sch-2; assay: as above
Summary of the method: as §1

[6] = tested on: S1507-2; assay: as above
Summary of the method: as §1

[7] = tested on: S462; assay: as above
Summary of the method: as §1

[8] = tested on: STS26T; assay: as above
Summary of the method: as §1

[9] = tested on: HSC1; assay: as above
Summary of the method: as §1

[10] = tested on: ST8814; assay: relative IC50 (inflection point of fitted dose-response curve, CellTox-Green cytotoxicity, 72 h; top asymptote may be below 50%); higher = less potent
Summary of the method: (§2)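 MPNST cell lines and primary human Schwann cells were incubated 72 h at 37 °C in 384-well plates holding five 10-fold compound dilutions. CellTox-Green was added before seeding at a final 1:1000 dilution and reported fluorescence from DNA released by disrupted cells. Signals were scaled to vehicle and positive-control wells, and cultures failing plate quality control were dropped. Drug sensitivity score and relative IC50 come from four-parameter logistic fits, with IC50 censored at the top concentration.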

[11] = tested on: HSC2; assay: as above
Summary of the method: as §2

[12] = tested on: HS-PSS; assay: as above
Summary of the method: as §2

[13] = tested on: STS26T; assay: as above
Summary of the method: as §2

[14] = tested on: HSC1; assay: as above
Summary of the method: as §2

SMILES	relative IC50 [1] [nM]	relative IC50 [2] [nM]	relative IC50 [3] [nM]	relative IC50 [4] [nM]	relative IC50 [5] [nM]	relative IC50 [6] [nM]	relative IC50 [7] [nM]	relative IC50 [8] [nM]	relative IC50 [9] [nM]	relative IC50 [10] [nM]	relative IC50 [11] [nM]	relative IC50 [12] [nM]	relative IC50 [13] [nM]	relative IC50 [14] [nM]
Cc1c2oc3c(C)ccc(C(=O)N[C@@H]4C(=O)N[C@H](C(C)C)C(=O)N5CCC[C@H]5C(=O)N(C)CC(=O)N(C)[C@@H](C(C)C)C(=O)O[C@@H]4C)c3nc-2c(C(=O)N[C@@H]2C(=O)N[C@H](C(C)C)C(=O)N3CCC[C@H]3C(=O)N(C)CC(=O)N(C)[C@@H](C(C)C)C(=O)O[C@@H]2C)c(N)c1=O [Dactinomycin]	3.46	0.779	0.88	5.05	1.95	5.95	1.86	2.08	0.906	49.1	8.46	12	3.07	12.4
COc1cc2ncnc(Nc3ccc(F)c(Cl)c3)c2cc1OCCCN1CCOCC1 [Gefitinib]	3560	2690	987	1780	1900	3600	4160	3770	2940	2950	> 10000	> 10000	3930	> 10000
CO[C@H]1C[C@@H]2CC[C@@H](C)[C@@](O)(O2)C(=O)C(=O)N2CCCC[C@H]2C(=O)O[C@H]([C@H](C)C[C@@H]2CC[C@@H](OC(=O)C(C)(CO)CO)[C@H](OC)C2)CC(=O)[C@H](C)/C=C(\C)[C@@H](O)[C@@H](OC)C(=O)[C@H](C)C[C@H](C)/C=C/C=C/C=C/1C [Temsirolimus]	0.561	0.227	1.38	1.13	1.18	0.775	1.34	0.237	0.103	> 100	> 100	> 100	> 100	> 100
COc1cc(Nc2ncc3c(n2)-c2ccc(Cl)cc2C(c2c(F)cccc2OC)=NC3)ccc1C(=O)O [Alisertib]	288	26.5	31.1	1560	244	124	24.8	89.6	53.4	265	> 10000	> 10000	40.4	> 10000
CC(=O)N(O)CCCCCNC(=O)CCC(=O)N(O)CCCCCNC(=O)CCC(=O)N(O)CCCCCN [Deferoxamine aq]	1300	771	–	–	–	931	1630	1420	1470	3040	> 10000	–	> 10000	> 10000
C[C@]1(O)C[C@@H](c2nc(-c3ccc4ccc(-c5ccccc5)nc4c3)c3c(N)nccn32)C1 [Linsitinib]	> 10000	> 10000	567	> 10000	770	20.7	101	–	3.91	> 10000	> 10000	> 10000	> 10000	> 10000
COc1cc2nccc(Oc3ccc(NC(=O)Nc4cc(C)on4)c(Cl)c3)c2cc1OC [Tivozanib]	> 10000	1790	2260	3730	3870	18.9	828	1870	1710	1900	> 10000	> 10000	1890	–
CO[C@H]1C[C@@H]2CC[C@@H](C)[C@@](O)(O2)C(=O)C(=O)N2CCCC[C@H]2C(=O)O[C@H]([C@H](C)C[C@@H]2CC[C@@H](OCCO)[C@H](OC)C2)CC(=O)[C@H](C)/C=C(\C)[C@@H](O)[C@@H](OC)C(=O)[C@H](C)C[C@H](C)/C=C/C=C/C=C/1C [Everolimus]	0.32	0.239	5.94	–	–	1.46	0.537	0.14	0.12	> 100	> 100	> 100	> 100	> 100
CN1CCc2c(c3ccccc3n2Cc2ccc(C(=O)NO)cc2)C1 [Tubastatin A]	3470	–	1600	3010	3370	2430	3270	2840	3180	> 10000	> 10000	> 10000	2760	> 10000
Cc1c(CN2CCN(C(=O)[C@H](C)O)CC2)sc2c(N3CCOCC3)nc(-c3cnc(N)nc3)nc12 [GDC-0980]	1060	469	–	–	–	447	617	486	636	2880	> 10000	–	> 10000	> 10000
O=C(O)c1ccc(-c2c[nH]c3ncc(-c4ccccc4)cc23)cc1C1CCCC1	> 10000	–	> 10000	–	2980	> 10000	> 10000	> 10000	> 10000	> 10000	> 10000	> 10000	> 10000	> 10000
CN(c1ccccc1CNc1nc(Nc2ccc3c(c2)CC(=O)N3)ncc1C(F)(F)F)S(C)(=O)=O	1370	326	1240	2360	2440	1250	1010	1420	209	–	–	–	849	–
O=C(CCCCCCC(=O)Nc1ccc([C@H]2O[C@@H](CSc3nc(-c4ccccc4)c(-c4ccccc4)o3)C[C@@H](c3ccc(CO)cc3)O2)cc1)NO [Tubacin]	2970	2970	2010	1470	2800	3190	3160	3310	3280	3070	> 10000	–	3190	> 10000
COc1cc([C@@H]2c3cc4c(cc3[C@@H](O[C@@H]3O[C@@H]5CO[C@@H](C)O[C@H]5[C@H](O)[C@H]3O)[C@H]3COC(=O)[C@H]23)OCO4)cc(OC)c1O [Etoposide]	1930	241	175	1300	1120	1490	833	1210	658	3230	1420	–	896	3130
CO[C@@]12[C@H](COC(N)=O)C3=C(C(=O)C(C)=C(N)C3=O)N1C[C@@H]1N[C@@H]12 [Mitomycin C]	3760	3650	2190	–	3950	3790	3690	3590	3330	3080	1060	> 10000	2850	2870
COc1cc2c(Oc3ccc(NC(=O)C4(C(=O)Nc5ccc(F)cc5)CC4)cc3F)ccnc2cc1OCCCN1CCOCC1 [Foretinib]	142	256	275	–	378	138	257	209	238	288	> 1000	–	311	> 1000
CC(C)(C)NC(=O)[C@H]1CC[C@H]2[C@@H]3CC[C@H]4NC(=O)C=C[C@]4(C)[C@H]3CC[C@]12C [Finasteride]	> 10000	> 10000	> 10000	> 10000	> 10000	> 10000	> 10000	–	> 10000	> 10000	> 10000	> 10000	> 10000	> 10000
O=C(O)CCCCC(CCSCc1ccccc1)SCc1ccccc1 (centres undefined) [CPI-613]	> 10000	> 10000	–	–	> 10000	> 10000	> 10000	> 10000	> 10000	> 10000	> 10000	> 10000	> 10000	> 10000
Cc1ccc([N+](=O)[O-])cc1S(=O)(=O)N(C)/N=C/c1cnc2ccc(Br)cn12 [PIK-75]	212	161	–	–	–	275	186	143	175	567	330	–	160	299
Nc1ncnc2c1nc(Cl)n2[C@@H]1O[C@H](CO)[C@@H](O)[C@H]1O [8-chloro-adenosine]	1240	3820	2580	6590	2960	1890	1590	2800	3550	–	> 50000	> 50000	2820	> 50000
CC1(C)CNc2cc(NC(=O)c3cccnc3NCc3ccncc3)ccc21 [Motesanib]	> 10000	–	–	> 10000	> 10000	> 10000	> 10000	> 10000	> 10000	> 10000	> 10000	> 10000	> 10000	> 10000
Cn1cnc2c(F)c(Nc3ccc(Br)cc3Cl)c(C(=O)NOCCO)cc21 [Selumetinib]	727	1710	> 10000	–	2030	301	736	240	2600	–	> 10000	> 10000	> 10000	> 10000
CC(C)C[C@H](NC(=O)[C@@H](COC(C)(C)C)NC(=O)[C@H](Cc1ccc(O)cc1)NC(=O)[C@H](CO)NC(=O)[C@H](Cc1c[nH]c2ccccc12)NC(=O)[C@H](Cc1cnc[nH]1)NC(=O)[C@@H]1CCC(=O)N1)C(=O)N[C@@H](CCCNC(=N)N)C(=O)N1CCC[C@H]1C(=O)NNC(N)=O [Goserelin]	> 10000	> 10000	> 10000	> 10000	–	> 10000	> 10000	> 10000	> 10000	> 10000	> 10000	> 10000	> 10000	> 10000
CCn1c(-c2nonc2N)nc2cnc(Oc3cccc(NC(=O)c4ccc(OCCN5CCOCC5)cc4)c3)cc21	1930	51.4	618	1610	988	1480	1490	775	64	> 10000	–	> 10000	322	2520
Cc1nc(Nc2ncc(C(=O)Nc3c(C)cccc3Cl)s2)cc(N2CCN(CCO)CC2)n1 [Dasatinib]	43.9	81.7	16.8	–	84.9	53.8	41.3	25.8	48.7	29.4	> 1000	> 1000	52	> 1000
O=NN(CCCl)C(=O)NCCCl [Carmustine]	> 10000	> 10000	> 10000	–	> 10000	> 10000	> 10000	> 10000	> 10000	> 10000	> 10000	> 10000	> 10000	> 10000
